Results reported in paper PMC4585835 (Scientific Reports, 2015).
Where a SMILES comes first, the peptide text is derived from it. [ ]: non-standard residue; d: D form. The star is where a group is joined. Stearoyl = CCCCCCCCCCCCCCCCCC(=O)*

Columns and labels:
rat plasma [1] = experiment: TT, PT and APTT of rat blood after administration; format: in vivo
Experimental: Forty-eight male SD rats (180 ~ 220 g) were randomly divided into six groups (n = 8) and anesthetized by i.p.20% ethyl urethane (1 g·kg^−1). […] Blood samples were obtained from the abdominal aorta, and then mixed with 3.8% sodium citrate solution in a ratio of 9:1 (v/v). The resulting samples were centrifuged at 3000 rpm for 15 min at 18 °C. TT, PT and APTT were determined according to the kit protocol (Sunbio Ltd., Shanghai) on a C2000 coagulometer (Precil, Beijing).

rat thrombin = molecular target: T1, rat thrombin (Rattus norvegicus, UniProt P18292); experiment: Inhibition of rat thrombin-catalyzed hydrolysis of Chromozym TH; format: biochemical; conditions: 25 °C, pH 7.4
T1 construct: purchased Sigma

IVC thrombosis = experiment: Inferior vena cava (IVC) thrombosis in rats; format: in vivo, rat
Experimental: Specifically, a laparotomy with ligation of the IVC below the renal veins and all visible side branches was first performed. 20 min or 5 hours after the administration of peptide or saline, the thrombosis in the IVC was carefully dissected and weighted after removing blood residual.

trypsin = molecular target: T2, trypsin (Bos taurus, UniProt P00760); experiment: Degradation mediated by trypsin (HPLC); format: in vitro ADME; conditions: trypsin (119 ng/μL) in Tris-HCl buffer, pH 8.5, 119 μg/ml trypsin, peptide 0.79 mM, 37 °C, read-out: peptide intact after incubation with trypsin
T2 construct: purchased Roche Corp (Indianapolis, USA)
T2 sequence (P00760 24-246): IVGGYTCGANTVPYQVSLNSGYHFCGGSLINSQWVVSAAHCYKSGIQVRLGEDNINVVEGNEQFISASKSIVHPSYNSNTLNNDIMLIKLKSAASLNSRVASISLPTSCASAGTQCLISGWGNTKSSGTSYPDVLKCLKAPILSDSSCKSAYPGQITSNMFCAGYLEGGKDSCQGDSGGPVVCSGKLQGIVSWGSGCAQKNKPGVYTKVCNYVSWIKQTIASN
Source text: The degradation of peptides mediated by trypsin can be effectively monitored by HPLC analysis. […] The detector wavelength was set at 214 nm.

human thrombin = molecular target: T3, human thrombin (Homo sapiens, UniProt P00734); experiment: Degradation mediated by human thrombin (HPLC); format: in vitro ADME; conditions: human thrombin (69 NIH/mL) in Tris-HCl buffer, pH 8, 69 NIH/ml human thrombin, peptide 0.41 mM, 37 °C, read-out: peptide remained after reaction with human thrombin
T3 construct: purchased National Institute for the Control of Pharmaceutical and Biological Products (Beijing, China)
Experimental: The catalytic cleavage of peptides mediated by thrombin was also examined using the same method. Specifically, a peptide solution (0.41 mM) was first incubated with thrombin (69 NIH/mL) in Tris-HCl buffer (70 mM Tris HCl, NaCl 50 mM, pH = 8.0) at 37 °C.

rat plasma [2] = experiment: Time course of APTT in rat plasma after peptide administration; format: in vivo
Experimental: Peptides were administrated to male SD rats (280–320 g) via tail veins. At different time points (0, 20, 40, 60, 90, 120, 180, and 240 min; or 0, 1, 2, 3, 4, 5, 8, and 12 h) after peptide injection, blood samples were collected via retroorbital vein plexus, and then mixed with 3.2% sodium citrate solution in a ratio of 9:1 (v/v). The resulting mixtures were centrifuged at 2,000 g for 15 min at 4 °C. The APTT of rat plasma was determined on a coagulation analyzer (Coatron M1, TECO, Germany) following the manual protocol. Briefly, a cuvette with 0.05 mL rat plasma was first warmed to 37 °C for 2 min, and then 0.05 mL of the warmed APTT reagent was added, followed by incubating at 37 °C for 3 min. Afterwards, 50 μL calcium chloride solution (0.25 M) was added into the cuvette, and the clotting time of plasma samples was recorded immediately with the coagulation analyser (APTT).

[3] = Bleeding time test (BT) in rats; format: in vivo, rat; conditions: for increase on the bleeding time compared with the saline group: 30 min; for bleeding time (BT): 30 min after administration
Experimental: Bleeding time was determined as reported previously. Male SD rats (180–220 g) were divided into 6 groups (n = 8). […] Thirty minutes after the injection, bleeding was induced by tail transection of the anesthetized rat with a size 21 disposable scalpel blade 2 mm from the tail tip. The bleeding tail was wiped with filter paper every 30 s, and the bleeding time was recorded when no blood was observed on the filter paper.

[4] = test system: rat carotid artery thrombosis; experiment: Rat carotid artery thrombosis (occlusion time); format: in vivo; conditions: for occlusion time (OT): 30 min after administration
Source text: The carotid artery thrombosis in rats was induced by the method developed by Hladovec with minor modifications. At first, male SD Rats (180 ~ 220 g) were randomly divided into 5 groups (n = 8) and anesthetized by i.p. 20% ethyl urethane (1 g/kg). The right carotid artery was first carefully separated to give a 1.5 cm long open access, and then the stimulating electrode and the temperature electrode of BT 87–3 thrombosis radiometer (Baotou medical college, China) were linked to both ends of the artery. […] The time from the initiation of electric stimulation to the sudden drop of carotid temperature was recorded as occlusion time (OT), or thrombus formation time.

[5] = molecular target: T4, human serum albumin (HSA) (Homo sapiens, UniProt P02768); experiment: Intrinsic HSA fluorescence quenching; format: binding; conditions: HSA 5 μM, pH 7.4, 25 °C
T4 construct: purchased Calbiochem (Merck, Germany)
T4 sequence (P02768 25-609): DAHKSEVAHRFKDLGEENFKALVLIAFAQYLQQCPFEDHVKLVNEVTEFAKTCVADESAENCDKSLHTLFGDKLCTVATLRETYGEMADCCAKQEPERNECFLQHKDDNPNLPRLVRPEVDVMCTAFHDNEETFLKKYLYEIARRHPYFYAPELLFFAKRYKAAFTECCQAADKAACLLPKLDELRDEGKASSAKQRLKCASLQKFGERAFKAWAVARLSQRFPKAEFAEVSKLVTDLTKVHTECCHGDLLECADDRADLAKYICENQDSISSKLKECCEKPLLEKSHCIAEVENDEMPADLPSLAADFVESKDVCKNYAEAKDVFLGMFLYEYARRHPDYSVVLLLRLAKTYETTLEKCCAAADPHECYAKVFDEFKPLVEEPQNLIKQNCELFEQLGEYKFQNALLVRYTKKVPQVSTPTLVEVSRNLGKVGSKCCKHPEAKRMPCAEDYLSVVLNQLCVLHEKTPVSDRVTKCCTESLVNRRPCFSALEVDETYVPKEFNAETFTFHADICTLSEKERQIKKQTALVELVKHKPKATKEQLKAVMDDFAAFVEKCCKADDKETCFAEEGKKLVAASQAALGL
Experimental: Fluorescence measurements were conducted on a Hitachi F-4500 spectrofluorometer with a slit width of 5 nm (excitation) and 5 nm (emission). All measurements were performed at 25 °C in a 1 cm path length quartz cell. Samples were excited at 280 nm and the fluorescence intensity was measured between 300–400 nm. Human serum albumin (5 μM) was dissolved in 10 mM HEPES/100 mM NaCl solution (pH 7.4), and then titrated with the stock solution of peptides prepared in the same buffer. The background fluorescence spectra were recorded and subtracted from the ones collected from the peptide-containing samples.

CCCCCCCCCCCCCCCCCC(=O)NCCCC[C@H](NC(=O)CNC(=O)[C@@H]1CCCN1C(=O)[C@H](CCCNC(=N)N)NC(=O)[C@@H]1CCCN1C(=O)[C@H](N)Cc1ccccc1)C(=O)NCC(=O)NCC(=O)N[C@@H](CCC(N)=O)C(=O)NCC(=O)N[C@@H](CC(=O)O)C(=O)N[C@@H](Cc1ccccc1)C(=O)N[C@@H](CCC(=O)O)C(=O)N1CCC[C@H]1C(=O)N[C@H](C(=O)N1CCC[C@H]1C(=O)N[C@@H](CCC(=O)O)C(=O)N[C@@H](CC(=O)O)C(=O)N[C@@H](C)C(=O)N[C@@H](Cc1ccc(O)cc1)C(=O)N[C@@H](CC(=O)O)C(=O)N[C@@H](CCC(=O)O)C(N)=O)[C@@H](C)CC [Peptide S2] (H-[dF]PRPGK(Stearoyl)GGQGDFEPIPEDAYDE-NH2; N-terminus assumed)
antithrombotic activity (TT, PT, APTT) compared with references (rat plasma [1]; 0.5 mg/kg peptide S2, 30 min after administration): superior to the 8 mg/kg hirulog-1 and 200 IU/kg heparin
TT, PT and APTT of rat blood (rat plasma [1]; 30 min after administration, sublingual vein): significantly elevate
Ki (rat thrombin): 15.2 ± 0.18 nM
Weight of wet thrombosis (IVC thrombosis; 0.27 mg/kg (0.1 μmol/kg), 300 min after administration): 1.7 ± 0.2 mg
Weight of wet thrombosis (IVC thrombosis; 0.81 mg/kg (0.3 μmol/kg), 300 min after administration): 0 mg
Weight of wet thrombosis (IVC thrombosis; 1.61 mg/kg (0.6 μmol/kg), 300 min after administration): 0 mg
Weight of wet thrombosis (IVC thrombosis; 2.69 mg/kg (1.0 μmol/kg), 20 min after administration): 1.3 ± 1.8 mg
Weight of wet thrombosis (IVC thrombosis; 2.69 mg/kg (1.0 μmol/kg), 300 min after administration): 0 mg
remaining at 3 h, 0.79 mM (trypsin; 3 h): 39%
remaining at 5 h, 0.79 mM (trypsin; 5 h): 23%
remaining at 3 h, 0.41 mM (human thrombin; 3 h): 93%
remaining at 5 h, 0.41 mM (human thrombin; 5 h): 69%
APTT of rat plasma, time course (rat plasma [2]; after injection via tail vein, Fig. 1D): increased in the first 4 h, and then decreased
duration of antithrombotic activity (APTT) (rat plasma [2]; rat plasma after peptide administration): more than 8 h
increase on the bleeding time compared with the saline group ([3]; 0.5 mg/kg): 29.03%
bleeding time (BT) ([3]; 0.5 mg/kg): 300.00 ± 35.86 s
increase on the bleeding time compared with the saline group ([3]; 1.0 mg/kg): 122.58%
bleeding time (BT) ([3]; 1.0 mg/kg): 517.50 ± 38.45 s
increase on the bleeding time compared with the saline group ([3]; 2.0 mg/kg): 174.19%
bleeding time (BT) ([3]; 2.0 mg/kg): 637.50 ± 74.79 s
occlusion time (OT) ([4]; 0.5 mg/kg): 979.88 ± 150.61 s
occlusion time (OT) ([4]; 1.0 mg/kg): 1063.75 ± 61.12 s
duration of antithrombotic activity (OT) ([4]; 1.0 mg/kg, OT at different time points): more than 8 h
occlusion time (OT) ([4]; 2.0 mg/kg): 1207.25 ± 137.82
binding to HSA by intrinsic fluorescence quenching [5]: dose-dependent fluorescence quenching within the range of 2.5 ~ 16 μM
